Broadly, the Ki is the equilibrium dissociation constant of an inhibitor or competing ligand from its target.

Values joined by “and” are separate entries in the source; they are usually repeats but may differ in a detail not shown here. Equal entries are not always repeated. Where two headings read alike, the source gives them in different places.

Data on 2 molecules can be found in article PMC10094543 (International Journal of Molecular Sciences, 2023).

One test has as its system NgBCCP. In kind it is biochemical, Neisseria gonorrhoeae.
In test [1] the target is T1, NgBCCP (Neisseria gonorrhoeae bacterial peroxidase) (Neisseria gonorrhoeae, UniProt Q5F5Z9).
T1 construct: gene NGO_1769; globular domain only (lipid anchor and AAEAP linker absent), pelB signal peptide, C-terminal His-tag; E. coli BL21(DE3) with pEC86; 38 kDa; di-heme c; Ca-dependent monomer/dimer equilibrium, dimer in crystal
T1 sequence (Q5F5Z9 59-387): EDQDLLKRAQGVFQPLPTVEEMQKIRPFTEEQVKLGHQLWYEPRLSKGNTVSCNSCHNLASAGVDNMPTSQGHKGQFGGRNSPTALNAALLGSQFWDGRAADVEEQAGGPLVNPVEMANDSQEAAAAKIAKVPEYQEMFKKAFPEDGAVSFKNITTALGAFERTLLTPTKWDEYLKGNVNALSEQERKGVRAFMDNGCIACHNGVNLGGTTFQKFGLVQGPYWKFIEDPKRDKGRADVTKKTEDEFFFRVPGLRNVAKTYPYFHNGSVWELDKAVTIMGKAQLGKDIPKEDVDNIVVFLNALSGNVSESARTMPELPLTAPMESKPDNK
Nature of the test: steady-state kinetics, ABTS oxidation at […] nm. In kind it is biochemical.

Test [2] concerns the target mixed-valence NgBCCP (P heme). The note with it: read-out: Kapp (apparent dissociation constant); pH 6.
The next test deals with N. europaea BCCP. The note with it: pH 7; cited from earlier work.
For a further test, the system named is P. aeruginosa BCCP. The note with it: cited from earlier work.

As to `c1c[nH]cn1` [imidazole], in the test on NgBCCP, the Vmax app was 0.55 ± 0.01 µM/s and 0.49 ± 0.01 µM/s and 0.48 ± 0.01 µM/s and 0.65 ± 0.01 µM/s and 0.44 ± 0.02 µM/s and 0.63 ± 0.04 µM/s and 0.58 ± 0.02 µM/s; the “a (α)” value was determined as 2.8; the “b (β)” value was 0.0; the mechanism of inhibition entry is “partially uncompetitive”. In addition, at NgBCCP (pH 7.5), the inhibitory constant (Ki) came out at 9 ± 4 mM and the mechanism of inhibition entry is “non-competitive/partially competitive”. Also, in test [1], the Ki came out at 9 ± 4 mM.

Consider azide, for which, in the test with NgBCCP, the Vmax app was 0.56 ± 0.003 µM/s and 0.53 ± 0.004 µM/s and 0.71 ± 0.001 µM/s and 0.66 ± 0.010 µM/s and 0.59 ± 0.001 µM/s; the “a (α)” value stood at 2.4; the “b (β)” value was 0.0. Also, the mechanism of inhibition entry in the test on NgBCCP (pH 7.5) is recorded as “non-competitive/partially competitive”. For the same molecule, the Kd in test [2] was determined as 3.8 mM. In addition, the inhibition constant Ki at N. europaea BCCP was 4.7 mM. The inhibition mechanism result in the test on P. aeruginosa BCCP is reported as “non-competitive”. For the same molecule, the inhibition constant Ki on P. aeruginosa BCCP (pH 6) is 3.1 mM.
